Test results as given in patent publication US10494341B2, “Compound containing indoleacetic acid core structure and use thereof” (Beijing An Jian Xi Bio-Medical Technology Co., Ltd., priority 2015, dated 2019).

Assays:
Type in all cases: in vivo
COX-1 in gastric mucosa = biological target: T1, COX-1 in gastric mucosa (Rattus norvegicus, UniProt Q63921); assay: COX-1 activity assay, gastric mucosa (thromboxane B2 EIA) after oral dosing of A23187-treated rats; conditions: for reduction of inhibition against COX-1 in gastric mucosal tissue compared with intermediate I: gavage 1, 3, 9 mg/kg/day, intermediate I 0.5 mg/kg, 6 h after dosing; for effect of inhibiting COX-1 in gastric mucosa: gavage, A23187-activated
T1 construct: from tissue; host or cells: rat gastric mucosa (in vivo dosing, tissue homogenate supernatant)
T1 sequence (Q63921 27-602): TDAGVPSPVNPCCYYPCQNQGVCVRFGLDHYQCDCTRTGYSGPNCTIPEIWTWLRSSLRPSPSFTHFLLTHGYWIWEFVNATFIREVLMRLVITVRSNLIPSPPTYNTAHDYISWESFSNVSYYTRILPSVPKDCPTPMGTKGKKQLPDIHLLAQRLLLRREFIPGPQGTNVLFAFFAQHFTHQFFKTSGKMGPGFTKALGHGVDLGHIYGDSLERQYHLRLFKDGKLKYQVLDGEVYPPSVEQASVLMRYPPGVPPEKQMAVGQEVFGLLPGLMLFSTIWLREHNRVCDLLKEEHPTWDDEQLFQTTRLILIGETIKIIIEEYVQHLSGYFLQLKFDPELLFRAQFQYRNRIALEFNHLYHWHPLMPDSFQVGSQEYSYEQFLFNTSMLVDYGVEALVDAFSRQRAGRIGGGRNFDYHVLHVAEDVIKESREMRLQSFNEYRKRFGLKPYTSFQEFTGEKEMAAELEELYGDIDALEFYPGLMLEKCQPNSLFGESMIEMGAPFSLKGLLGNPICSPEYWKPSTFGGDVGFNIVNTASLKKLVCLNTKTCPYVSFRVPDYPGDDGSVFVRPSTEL
Method: (1) COX-1 activity assay: 2 hours after intraperitoneal injection of calcium ionophore A23187 (50 mg/kg) to rats, each of the compounds a, b, c, d, e and f was orally administered (gavage) to three rats at a dose of 1, 3 and 9 mg/kg/day, respectively; the intermediate I was orally administered as a control drug to three rats at a dose of 0.5 mg/kg; and additional three rats were only administered with COX-1 activator, the calcium ionophore A23187, and were not administered with the compounds of the present invention. 6 hours after the compound of the present invention was administered, the animals were sacrificed, gastric mucosal tissue and myocardial tissue were collected, homogenized, and subjected to high-speed centrifugation (12,000 rpm), and the supernatant was collected for use. The amount of thromboxane B2 was measured using an enzyme-linked immunosorbent assay (EIA) kit (operated in accordance with the instructions provided by the manufacturer) and converted to COX1 activity.
The percentage inhibition rate against COX-1 (FIG. 1a—gastric mucosa, FIG. 1b—myocardium) and COX-2 (FIG. 1c) and the IC50 values (Table 1a—gastric mucosa; Table 1b—myocardium) of each tested pharmaceutical compound were calculated from the above data.

gastric mucosa = assay: Ulcer induction in rats after gavage (lesions of the gastric mucosa); conditions: for prevalence of ulcer / Ulcer index: gavage three times; for Ulcer index: Dose 90 μM/kg, 12 hours after last gavage; for ulcer at high concentration: gavage, high concentration (90 μM)
mice (C57BL/6J) = assay: Survival rate of mice irradiated by γ-rays; conditions: 30th day after 8.75 Gy γ-rays, 16 mice per group; for number of survived mice: intermediates each 3 mg/kg/day gavage; for survival rate: compounds 6 mg/kg/day gavage, amifostine 400 mg/kg/day i.p.
Method: In this experiment, 10-week-old male mice (C57BL/6J) weighing about 20 g were used as subjects, and 16 mice were taken as a group. The mice were divided into the following groups: 1. no γ-ray+no drug; 2. γ-ray+no drug; 3. γ-ray+amifostine; 4. γ-ray+intermediate I+intermediate II; 5. γ-ray+compound a; 6. γ-ray+compound b; and 7. γ-ray+compound d. Firstly, each group of mice was administered with a protective agent, and the specific amounts were as follows: compound a, b and d: 6 mg/kg/day (8.1 μM), amifostine: 400 mg/kg/day (1.5 mM), intermediate I+Intermediate II: each 3 mg/kg/day (8.1 μM). Except that amifostine was intraperitoneally injected (30 minutes before irradiation, amifostine was administered), the other protective agents were administered by gavage. 12 hours after administration, systemic irradiation was performed using cobalt 60γ-rays at a dose of 8.75Gy and a dose rate of 0.35 Gy/min for 25 minutes, with the radiation source 80 cm away from the mice. The mice were irradiated once, and continuously administered with drugs once daily for 10 days after irradiation. The number of survival mice was recorded. The percentage obtained by dividing the number of survival mice by the total number of mice in the experimental group (16 mice) is survival rate of mice, and the results are summarized in FIG. 7. […] It is noteworthy that in the experimental group using intermediate I+intermediate II, only one mouse is survived.

peripheral leukocytes = assay: Protection against blood cell (leukocyte) damage induced by paclitaxel; conditions: mice, compounds 6 mg/kg/day gavage; for protective effect on peripheral leukocytes (words): paclitaxel 10 mg/kg/day i.p.; for protective effect on leukocytes at the late stage of chemotherapy: paclitaxel
Method: In this experiment, 10-week-old male mice (C57BL/6J) weighing about 20 grams were used as subjects, and 6 mice were taken as a group. The mice were divided into 5 groups: 1. Paclitaxel; 2. Paclitaxel+amifostine; 3. Paclitaxel+intermediate I+intermediate II; 4. paclitaxel+compound a; and 5. paclitaxel+compound b. Firstly, each group of mice was administered with a protective agent, and the specific amounts were as follows: compounds a and b: each 6 mg/kg/day (8.1 μM), amifostine: 400 mg/kg/day (1.5 mM), intermediate I+Intermediate II: each 3 mg/kg/day (8.1 μM). Except that amifostine was intraperitoneally injected (30 minutes before administering Paclitaxel, amifostine was administered), the other protective agents were administered by gavage (once a day, 25 times continuously). 12 hours after the compound a and the corresponding protective agents were administered, Paclitaxel was intraperitoneally injected (10 mg/kg/day, once every 3 days, 9 times continuously), and 7, 14, 21, 28 days later, blood of mice was drawn respectively. The number of leukocytes was analyzed.

COc1ccc2c(CC(=O)OCCCCCCCCCCc3c(C)c(O)c(OC)c(OC)c3O)c(C)n(C(=O)c3ccc(Cl)cc3)c2c1 [compound b]
reduction of inhibition against COX-1 in gastric mucosal tissue compared with intermediate I (COX-1 in gastric mucosa): ~700 fold | effect of inhibiting COX-1 in gastric mucosa (COX-1 in gastric mucosa): almost lose the effect of inhibiting COX-1 in gastric mucosa | prevalence of ulcer (gastric mucosa; 10 μM): 0/6 | prevalence of ulcer (gastric mucosa; 30 μM): 0/6 | prevalence of ulcer (gastric mucosa; 90 μM): 0/6 | Ulcer index (gastric mucosa): 0 | ulcer at high concentration (gastric mucosa): does not result in ulcer | number of survived mice (mice (C57BL/6J)): 12 mice | survival rate (mice (C57BL/6J)): 75% | protective effect on peripheral leukocytes (words) (peripheral leukocytes): apparently reduce radiation-induced peripheral leukocyte damage | protective effect on peripheral leukocytes (words) (peripheral leukocytes; listed as Compound b): strongest protective effect | protective effect on leukocytes at the late stage of chemotherapy (peripheral leukocytes): significantly better than that of amifostine

COC1=C(OC)C(=O)C(CCCCCCCCCCOC(=O)Cc2c(C)n(C(=O)c3ccc(Cl)cc3)c3cc(OC)ccc23)=C(C)C1=O [compound a]
reduction of inhibition against COX-1 in gastric mucosal tissue compared with intermediate I (COX-1 in gastric mucosa): ~700 fold | effect of inhibiting COX-1 in gastric mucosa (COX-1 in gastric mucosa): almost lose the effect of inhibiting COX-1 in gastric mucosa | prevalence of ulcer (gastric mucosa; 10 μM): 0/6 | prevalence of ulcer (gastric mucosa; 30 μM): 0/6 | prevalence of ulcer (gastric mucosa; 90 μM): 1/6 | Ulcer index (gastric mucosa): 3.3 ± 0.12 | ulcer at high concentration (gastric mucosa): only one rat has light ulcer | number of survived mice (mice (C57BL/6J)): 10 mice | survival rate (mice (C57BL/6J)): 62.5% | protective effect on peripheral leukocytes (words) (peripheral leukocytes): apparently reduce radiation-induced peripheral leukocyte damage | protective effect on leukocytes at the late stage of chemotherapy (peripheral leukocytes): significantly better than that of amifostine
